Test results as given in US20150232856A1, “TELOMERASE INHIBITORS FOR USE IN THERAPY” (AGENCY FOR SCIENCE, TECHNOLOGY AND RESEARCH, priority 2012, published 2015).

Test system: A2780cp cells
Experiment: Colony formation assay
Format: cell-based, human
Conditions: significantly rescued by ectopic expression of p65 (FIGS. 1G & H)
Description: F. Colony formation assay: A2780cp cells were infected with p65 expressing or GFP (Cntrl) virus followed by plating 1000 cells per condition. The cells were then treated with 2 μM MST312 or DMSO control for 2 weeks followed by staining with crystal violet after 12 days. Number of colonies was counted from duplicate plates.

In the case of “sh-hTERT: shRNA directed against hTERT, SEQ ID NO: 48 (CATTTCATCAGCAAGTTTGGA)”, the “colony forming ability of cells” value is reported as “reduction in colony forming ability”.
